Here are results for 9 molecules from patent US20230330254A1 (Regeneron Pharmaceuticals, Inc., priority 2022, published 2023).

pEC50: −log10 of the molar value. Where two headings read alike, the source gives them in different places. *1 amine or outer side, *2 acyl side, *3 side chain or, on linkers, in order; H or OH if unused. Where a SMILES comes first, the peptide text is derived from it. [ ]: non-standard residue; d: D form. The star is where a group is joined. Bip(2'-Et-4'-O(CH2)4NH2) = CCc1cc(OCCCCN[*:3])ccc1-c1ccc(C[C@H](N[*:1])C(=O)[*:2])cc1; Bip(2'-Et,4'-O(CH2)4N3) = CCc1cc(OCCCCN=[N+]=[N-])ccc1-c1ccc(C[C@H](N)C(=O)O)cc1; Bip(2'-Et,4'-O(CH2)4NH2) = CCc1cc(OCCCCN)ccc1-c1ccc(C[C@H](N)C(=O)O)cc1; X10 = O=C(NCCOCCOCCOCCOC(=O)*)OC[C@@H]1[C@@H]2CCc3[nH]nnc3CC[C@@H]21; Malonyl(2,2-Me2,histaminyl) = CC(C)(C(=O)NCCc1cnc[nH]1)C(=O)*; Nva(5-(3,5-Me2Ph)) = Cc1cc(C)cc(CCC[C@H](N)C(=O)O)c1; Ala(1H-tetrazol-5-yl) = N[C@@H](Cc1nnn[nH]1)C(=O)O; αMePhe(2-F) = C[C@](N)(Cc1ccccc1F)C(=O)O; Desaminohistidyl = O=C(CCc1c[nH]cn1)*

Data set [1] relates to HEK293/CRE-Luc cells. Description: Luciferase reporter assay, HEK293/CRE-Luc cells without hGLP1R (Example 11). Format: cell-based, human. Conditions: Table 11; Experiment A; no hGLP1R expression. The source says: (§1) To test the activity of GLP1R agonist payloads, GLP1R agonist linker-payloads (LPs), and anti-GLP1R antibody tethered drug conjugates (ATDCs) of the disclosure, a cell-based cAMP responsive luciferase reporter assay was developed. To generate the assay cell line, the firefly luciferase gene was placed under the control of a cAMP response element (CRE) located upstream of a minimal promoter and transfected into HEK293 cells and referred to herein as HEK293/CRE-Luc cells.
(§2) Three-fold serial dilutions of free payloads or LPs were prepared in 100% DMSO, transferred to fresh assay media, and added to the cells at a final constant DMSO concentration of 0.2%. The last well in the plate served as a blank control containing only the assay media and 0.2% DMSO (untreated well) and was plotted as a continuation of the 3-fold serial dilution. Four to six hours later, luciferase activity was determined after the addition of One-Glo™ reagent (Promega, Cat #E6130) to each well. Relative light units (RLUs) were measured on an Envision luminometer (PerkinElmer) and EC50 values were determined using a four-parameter logistic equation over a 12-point dose response curve (GraphPad Prism). The signal to noise (S/N) was determined by taking the ratio of the highest RLU on the dose response curve to the RLU in the untreated wells.

The target in data set [2] is T1, human GLP1R (Homo sapiens, UniProt P43220). Description: Luciferase reporter assay, HEK293/CRE-Luc/hGLP1R (Example 17). Type of data set: cell-based. Also noted: engineered to express full-length human GLP1R, cynomolgus GLP1R; expressed in transfected cells; host or cells: HEK293/CRE-Luc. Conditions: HEK293/CRE-Luc/hGLP1R. Summed up: (§3)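 HEK293 cells carrying a CRE-driven firefly luciferase reporter were exposed to 3-fold serial dilutions of payloads or linker-payloads (12 points, 0.2% DMSO final) for 4–6 h, then luminescence was read. EC50 came from a four-parameter logistic fit; S/N is top RLU over untreated wells, and relative potency and S/N are referenced to M2361.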

Data set [3] relates to HEK293/CRE-Luc cells. The data set can be described thus: Luciferase reporter assay, HEK293/CRE-Luc cells without GLP1R (Example 17). Type of data set: cell-based, human. Conditions: HEK293/CRE-Luc cells without hGLP1R, payloads and linker-payloads. Summed up:
as §3

For data set [4], the target named is T1, human GLP1R. The data set can be described thus: Luciferase reporter assay, HEK293/CRE-Luc/hGLP1R cells (Example 11). Format: cell-based. Also noted: engineered to express full-length human GLP1R, cynomolgus GLP1R; expressed in transfected cells; host or cells: HEK293/CRE-Luc. Conditions: Table 11; Experiment A.
Text: as §1, §2
GLP1R agonist linker payloads were conjugated to anti-hGLP1R antibodies via N-terminal heavy or light chain Q tags. Several resulting anti-GLP1R antibody tethered drug conjugates (ATDCs) were tested for activity in the HEK293/CRE-Luc/hGLP1R reporter assay as described above for the free GLP1R payload and linker-payload agonists.

Data set [5] in a line: Plasma stability of payloads and linker-payloads, human plasma. Format: in vitro ADME. Conditions: plasma, 2 μM, 37° C.; for half-life at 2 µM: read-out: Human plasma stability assay T½ (converted). On the procedure:
The plasma stability of payloads and linker payloads of the disclosure were measured. For the assay, pooled frozen plasma (human, mouse or monkey) was thawed in cold water or a 37° C. water bath prior to experiment. Plasma was centrifuged at 4000 rpm for 5 min if any clots were observed, they were subsequently removed. If required, the pH was adjusted to 7.4±0.1. For the preparation of compounds and positive controls, a 1 mM intermediate solution was prepared by diluting 10 μL of their stock solution with 90 μL DMSO; a 1 mM intermediate solution of the positive control (Propantheline) was prepared by diluting 10 μL of its stock solution with 90 μL ultrapure water. […] 98 μL of plasma was spiked with 2 μL of dosing solution (100 μM) to achieve the final concentration of 2 μM in duplicate. Samples were then incubated at 37° C. in a water bath. […] At each time point, 400 μL of stop solution (200 ng/mL tolbutamide plus 200 ng/mL labetalol in 50% ACN/MeOH) was added to precipitate protein and mixed thoroughly. Sample plates were then centrifuged at 4,000 rpm for 10 min. An aliquot of supernatant (50 μL) was transferred from each well and mixed with 100 μL ultrapure water. The samples were then shaken at 800 rpm for approximately 10 min before submitting for LC-MS/MS analysis.

In data set [6] the target is T1, human GLP1R. Description: Human GLP1R cAMP accumulation assay. Format: cell-based. Further details: HEK293 cells over-expressing full length human GLP-1R were utilized; expressed in transfected cells; host or cells: HEK293 (HEK293/hGLP1R). Conditions: HEK293/hGLP1R cells; Table 4; read-out: cAMP EC50. Summed up: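 cAMP accumulation measured after 30 min at 23° C, with 500 μM IBMX in HEPES-buffered HBSS plus 0.1% BSA, in HEK293 cells expressing full-length hGLP-1R. Levels read by D2-cAMP/antibody immunoassay via standard curve, scaled between low and high controls. EC50 fitted four-parameter over a 10-point curve.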

Setting [7] is: relative to M2361 of the same experiment.

T1 sequence (P43220 24-463): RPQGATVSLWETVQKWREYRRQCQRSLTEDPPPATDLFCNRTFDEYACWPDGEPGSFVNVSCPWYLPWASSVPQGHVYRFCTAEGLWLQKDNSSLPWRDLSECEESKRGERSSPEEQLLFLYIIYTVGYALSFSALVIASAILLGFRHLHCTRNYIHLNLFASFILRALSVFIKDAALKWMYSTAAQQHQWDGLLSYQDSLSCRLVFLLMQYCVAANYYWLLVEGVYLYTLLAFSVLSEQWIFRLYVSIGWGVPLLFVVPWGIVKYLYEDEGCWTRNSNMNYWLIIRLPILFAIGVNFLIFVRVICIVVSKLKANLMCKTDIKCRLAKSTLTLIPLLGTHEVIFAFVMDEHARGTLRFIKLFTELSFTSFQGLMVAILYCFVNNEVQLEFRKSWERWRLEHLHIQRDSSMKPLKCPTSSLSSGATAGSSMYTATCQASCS

With `CCc1cc(OCCCCN)ccc1-c1ccc(C[C@H](NC(=O)[C@H](CC(=O)O)NC(=O)[C@H](CO)NC(=O)[C@@H](NC(=O)[C@](C)(Cc2ccccc2F)NC(=O)[C@@H](NC(=O)CNC(=O)[C@H](Cc2nn[nH]n2)NC(=O)CNC(=O)CCc2cnc[nH]2)[C@@H](C)O)[C@@H](C)O)C(=O)N[C@@H](CCCc2cc(C)cc(C)c2)C(N)=O)cc1` [P12] (Desaminohistidyl-G[Ala(1H-tetrazol-5-yl)]GT[αMePhe(2-F)]TSD[Bip(2'-Et,4'-O(CH2)4NH2)][Nva(5-(3,5-Me2Ph))]-NH2), in the data set on HEK293/CRE-Luc cells [1], the pEC50 was less than 6.70 and the “HEK293/CRE-LUC S/N” value is reported as 1.2. Moreover, the S/N at human GLP1R [2] (highest RLU / RLU of untreated wells) is 76.4. For the same molecule, on human GLP1R [2] (setting [7]), the “Relative Potency (% M2361 EC50)” value was found to be 46.5% and the “Relative Signal:Noise (% M2361)” value came out at 116.2%. In addition, the S/N with HEK293/CRE-Luc cells [3] stood at 1.2. For the same molecule, the pEC50 in the data set with HEK293/CRE-Luc cells [3] (read-out: EC50) is less than 6.70. In addition, on human GLP1R [4], the “HEK293/CRE-LUC/hGLP1R Relative Potency (% P8 EC50)” value is recorded as 46.5% and the “HEK293/CRE-LUC/hGLP1R S/N” value was determined as 76.4.

Take `CCc1cc(OCCCCn2cc(COCCOCCOCCOCCOCCOCCOCCOCCNC(=O)CCC(=O)N3Cc4ccccc4-c4nn[nH]c4-c4ccccc43)nn2)ccc1-c1ccc(C[C@H](NC(=O)[C@H](CC(=O)O)NC(=O)[C@H](CO)NC(=O)[C@@H](NC(=O)C(C)(Cc2ccccc2F)NC(=O)[C@@H](NC(=O)CNC(=O)[C@H](Cc2nn[nH]n2)NC(=O)C(C)(C)C(=O)NCCc2cnc[nH]2)[C@@H](C)O)[C@@H](C)O)C(=O)N[C@@H](CCCc2cc(C)cc(C)c2)C(N)=O)cc1` (stereo partly shown) [LP28, triazole-DIBAC-suc-PEG8-triazole-P8]: in data set [5] (pH 7.4, tested time C (3 days)), the half-life at 2 µM is greater than 173 h.

As for `CCc1cc(OCCCCNC(=O)OCCOCCOCCOCCNC(=O)OC[C@@H]2[C@@H]3CCc4[nH]nnc4CC[C@@H]32)ccc1-c1ccc(C[C@H](NC(=O)[C@H](CC(=O)O)NC(=O)[C@H](CO)NC(=O)[C@@H](NC(=O)[C@](C)(Cc2ccccc2F)NC(=O)[C@@H](NC(=O)CNC(=O)[C@H](Cc2nn[nH]n2)NC(=O)C(C)(C)C(=O)NCCc2cnc[nH]2)[C@@H](C)O)[C@@H](C)O)C(=O)N[C@@H](CCCc2cc(C)cc(C)c2)C(N)=O)cc1` [LP25, triazole-BCN-PEG4-carba-mate-P9] ({Malonyl(2,2-Me2,histaminyl)}-[Ala(1H-tetrazol-5-yl)]GT[αMePhe(2-F)]TSD[Bip(2'-Et-4'-O(CH2)4NH2)](X10)[Nva(5-(3,5-Me2Ph))]-NH2), the half-life at 2 µM in data set [5] (pH 7.4, tested time D (7 days)) was 285 h.

Consider `CCc1cc(OCCCCn2cc(COCCOCCOCCOCCOCCOCCOCCOCCC(=O)N[C@@H](CC(C)C)C(=O)N3CCC[C@@H]3C(=O)N[C@@H](CCC(=O)O)C(=O)N[C@H](C(=O)NCC(=O)NCC(=O)O)[C@@H](C)O)nn2)ccc1-c1ccc(C[C@H](NC(=O)[C@H](CC(=O)O)NC(=O)[C@H](CO)NC(=O)[C@@H](NC(=O)[C@](C)(Cc2ccccc2F)NC(=O)[C@@H](NC(=O)CNC(=O)[C@H](Cc2nn[nH]n2)NC(=O)C(C)(C)C(=O)NCCc2cnc[nH]2)[C@@H](C)O)[C@@H](C)O)C(=O)N[C@@H](CCCc2cc(C)cc(C)c2)C(N)=O)cc1` [LP34, GGT EPL-PEG8-triazole-P8], for which the half-life in data set [5] (tested time C (3 days), read-out: Human plasma stability assay T½) is greater than 173 h.

For the molecule `CCc1cc(OCCCCN)ccc1-c1ccc(C[C@H](NC(=O)[C@H](CC(=O)O)NC(=O)[C@H](CO)NC(=O)[C@@H](NC(=O)[C@](C)(Cc2ccccc2F)NC(=O)[C@@H](NC(=O)CNC(=O)[C@H](Cc2nn[nH]n2)NC(=O)[C@@]2(C)CCN(CCc3cnc[nH]3)C2=O)[C@@H](C)O)[C@@H](C)O)C(=O)N[C@@H](CCCc2cc(C)cc(C)c2)C(N)=O)cc1` [P15-R], the pEC50 on human GLP1R [6] was 9.93. In the data set with HEK293/CRE-Luc cells [1], the pEC50 was less than 6.70 and the “HEK293/CRE-LUC S/N” value is 1.1. In addition, on human GLP1R [4], the pEC50 was 10.88, the “HEK293/CRE-LUC/hGLP1R Relative Potency (% P8 EC50)” value is on record as 40.3% and the “HEK293/CRE-LUC/hGLP1R S/N” value amounted to 67.8.

In the case of `CCc1cc(OCCCCN=[N+]=[N-])ccc1-c1ccc(C[C@H](NC(=O)[C@H](CC(=O)O)NC(=O)[C@H](CO)NC(=O)[C@@H](NC(=O)[C@](C)(Cc2ccccc2F)NC(=O)[C@@H](NC(=O)CNC(=O)[C@H](Cc2nn[nH]n2)NC(=O)C(C)(C)C(=O)NCCc2cnc[nH]2)[C@@H](C)O)[C@@H](C)O)C(=O)N[C@@H](CCCc2cc(C)cc(C)c2)C(=O)O)cc1` [P41] ({Malonyl(2,2-Me2,histaminyl)}-[Ala(1H-tetrazol-5-yl)]GT[αMePhe(2-F)]TSD[Bip(2'-Et,4'-O(CH2)4N3)][Nva(5-(3,5-Me2Ph))]-OH), the half-life at 2 µM in data set [5] (pH 7.4, tested time A (1 day per footnote)) was greater than 57.8 h.

`CCc1cc(OCCCCn2cc(COCCOCCOCCOCCNC(=O)OC[C@@H]3[C@@H]4CCc5[nH]nnc5CC[C@@H]43)nn2)ccc1-c1ccc(C[C@H](NC(=O)[C@H](CC(=O)O)NC(=O)[C@H](CO)NC(=O)[C@@H](NC(=O)[C@](C)(Cc2ccccc2F)NC(=O)[C@@H](NC(=O)CNC(=O)[C@H](Cc2nn[nH]n2)NC(=O)C(C)(C)C(=O)NCCc2cnc[nH]2)[C@@H](C)O)[C@@H](C)O)C(=O)N[C@@H](CCCc2cc(C)cc(C)c2)C(N)=O)cc1` [LP24, triazole-BCN-PEG4-triazole-P8]: the half-life at 2 µM in data set [5] (pH 7.4, tested time D (7 days)) is greater than 405 h.

On to `CCc1cc(OCCCCNC(=O)[C@H](CO)NC(=O)CNC(=O)CNC(=O)CNC(=O)CNC(=O)CCC(=O)N2Cc3ccccc3-c3nn[nH]c3-c3ccccc32)ccc1-c1ccc(C[C@H](NC(=O)[C@H](CC(=O)O)NC(=O)[C@H](CO)NC(=O)[C@@H](NC(=O)[C@](C)(Cc2ccccc2F)NC(=O)[C@@H](NC(=O)CNC(=O)[C@H](Cc2nn[nH]n2)NC(=O)C(C)(C)C(=O)NCCc2cnc[nH]2)[C@@H](C)O)[C@@H](C)O)C(=O)N[C@@H](CCCc2cc(C)cc(C)c2)C(N)=O)cc1` [LP26, triazole- DIBAC- G4S-P9], for which, in data set [5] (pH 7.4, tested time D (7 days)), the half-life at 2 µM is greater than 405 h.

With `CCc1cc(OCCCCn2cc(COCCOCCOCCOCCOCCOCCOCCOCCN)nn2)ccc1-c1ccc(C[C@H](NC(=O)[C@H](CC(=O)O)NC(=O)[C@H](CO)NC(=O)[C@@H](NC(=O)[C@](C)(Cc2ccccc2F)NC(=O)[C@@H](NC(=O)CNC(=O)[C@H](Cc2nn[nH]n2)NC(=O)C(C)(C)NC(=O)[C@@H](N)Cc2ccc(O)cc2)[C@@H](C)O)[C@@H](C)O)C(=O)N[C@@H](CCCc2cc(C)cc(C)c2)C(N)=O)cc1` [LP29, NH2-PEG8-triazole-P19], the half-life at 2 µM in data set [5] (pH 7.4, tested time C (3 days)) is greater than 173 h.
